By IC50 is commonly meant the concentration that gives 50% inhibition. Low readings indicate inhibition by little substance, high ones a need for much substance.

These results are taken from publication PMC4749225, “Azidobupramine, an Antidepressant-Derived Bifunctional Neurotransmitter Transporter Ligand Allowing Covalent Labeling and Attachment of Fluorophores” (PLoS ONE, 2016).

Where two headings read alike, the source gives them in different places.

In assay [1] the target is T1, rSERT (Rattus norvegicus, UniProt P31652).
T1 construct: expressed in transfected cells; host or cells: T-REx-SERT cells (T-REx 293 based, tetracycline-inducible), gift of C.G. Tate
T1 sequence (P31652 whole entry): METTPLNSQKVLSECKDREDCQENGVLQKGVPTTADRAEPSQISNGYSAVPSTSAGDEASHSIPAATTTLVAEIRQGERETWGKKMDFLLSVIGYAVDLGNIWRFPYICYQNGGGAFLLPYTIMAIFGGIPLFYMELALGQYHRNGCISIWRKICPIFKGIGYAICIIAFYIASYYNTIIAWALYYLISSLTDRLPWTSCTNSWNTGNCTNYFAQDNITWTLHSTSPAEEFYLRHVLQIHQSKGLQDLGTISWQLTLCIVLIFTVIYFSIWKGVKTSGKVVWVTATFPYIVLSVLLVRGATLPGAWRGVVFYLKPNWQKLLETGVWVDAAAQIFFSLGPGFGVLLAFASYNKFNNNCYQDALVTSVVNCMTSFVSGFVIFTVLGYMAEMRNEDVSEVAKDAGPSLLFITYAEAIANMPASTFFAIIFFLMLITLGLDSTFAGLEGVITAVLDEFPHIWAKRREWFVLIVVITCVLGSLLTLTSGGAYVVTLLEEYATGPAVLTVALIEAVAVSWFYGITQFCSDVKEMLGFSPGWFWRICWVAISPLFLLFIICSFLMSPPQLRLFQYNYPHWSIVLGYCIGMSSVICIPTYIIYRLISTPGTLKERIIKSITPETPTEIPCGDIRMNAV
Kind of assay: Radioligand binding assay (RBA), competition with [3H]-citalopram, membranes of T-REx-SERT cells. Particulars: for IC50: 0.5 nM [3H]-citalopram, 34°C, 60 min; for Ki: IC50 converted to Ki according to Cheng-Prusoff.
Procedure: Tetracycline induced T-REx-SERT cells were mechanically disrupted with a hypotonic Tris-buffer (50 mM Tris, pH 7.9, proteinase inhibitor) in a two step procedure: dounce-homogenisation (Potter S, B.Braun, Melsungen, Germany) followed by an ultrasound treatment (sonifier W-250, Branson, CT, USA). Homogenates were centrifuged first at 800 rcf (10’, 4°C), followed by a second centrifugation step at 100,000 rcf (60’, 4°C). The resulting pellet was re-suspended in reaction-buffer RB1 (50 mM Tris-HCl, 150 mM NaCl, 5 mM KCl, proteinase inhibitor, pH 7.9), and stored at -80°C after protein determination (Pierce® BCA Protein Assay, Thermo Scientific, IL, USA).
Drugs were diluted in DMSO as solvent. Incubation was carried out at 34°C for 60’, and terminated by rapid filtration over polyethyleneimine preincubated GF/C filters using a Brandell MWXR-97TI cell harvester (Gaithersburg, MD, USA). Filters were washed three times with 2 ml of ice cold reaction-buffer RB1 and then incubated with scintillation liquid; radioactivity was measured by beta counting (MicroBeta, PerkinElmer LAS, Boston, MA, USA).

Assay [2] addresses T1, rSERT. Kind of assay: PAL of 17 in living T-REx-SERT cells followed by CuAAC rhodamine labelling, with competitor. The format is cell-based. To be noted: 17 10 μM; UV-light 312 nm.
Procedure: T-REx-SERT cells expressing rSERT-His10-FLAG were kindly provided by C.G. Tate (MRC Laboratory of Molecular Biology, Cambridge, UK) [27]; cells were cultivated in suspension (FreeStyle™ 293 Expression medium, 10% FBS, antibiotic-antimycotic, and pyruvate); for selection purpose, 5 μg/ml blasticidin and 200 μg/ml zeocin were used; expression was induced by adding 1 μg/ml tetracycline for 5 days.
(§2) For all these experiments, rSERT was chosen as model target. The PAL-reaction was conducted either using rSERT-enriched protein material or living cells. In both cases, the subsequent CuAAC-reaction took place after the double-tagged rSERT-His10-FLAG was immobilized on ANTI-FLAG® M2 Affinity-gel (SigmaAldrich, MO, USA).
This was followed by UV-light induced covalent linkage (312 nm, 2x 60”, RT). The further processing was as described above, i.e. membrane preparation, solubilization and immobilization of rSERT to ANTI-FLAG® M2 Affinity-gel, CuAAC-reaction followed by protein elution, and SDS-PAGE.
Within the fluorescence based interaction studies of 17 with rSERT, the fluorescence signal was recorded with the ChemiDoc MP detection-system and analyzed using ImageLab (BioRad, CA, USA); for quantification, only those fluorescent signals were taken that correspond to Western blot verified rSERT (between 70-100 kDa). Recorded fluorescent signals were normalized to the Western-blot signal of rSERT. […]
The target in the next assay is T2, hNET (Homo sapiens, UniProt P23975).
T2 construct: expressed in transfected cells
T2 sequence (P23975 whole entry): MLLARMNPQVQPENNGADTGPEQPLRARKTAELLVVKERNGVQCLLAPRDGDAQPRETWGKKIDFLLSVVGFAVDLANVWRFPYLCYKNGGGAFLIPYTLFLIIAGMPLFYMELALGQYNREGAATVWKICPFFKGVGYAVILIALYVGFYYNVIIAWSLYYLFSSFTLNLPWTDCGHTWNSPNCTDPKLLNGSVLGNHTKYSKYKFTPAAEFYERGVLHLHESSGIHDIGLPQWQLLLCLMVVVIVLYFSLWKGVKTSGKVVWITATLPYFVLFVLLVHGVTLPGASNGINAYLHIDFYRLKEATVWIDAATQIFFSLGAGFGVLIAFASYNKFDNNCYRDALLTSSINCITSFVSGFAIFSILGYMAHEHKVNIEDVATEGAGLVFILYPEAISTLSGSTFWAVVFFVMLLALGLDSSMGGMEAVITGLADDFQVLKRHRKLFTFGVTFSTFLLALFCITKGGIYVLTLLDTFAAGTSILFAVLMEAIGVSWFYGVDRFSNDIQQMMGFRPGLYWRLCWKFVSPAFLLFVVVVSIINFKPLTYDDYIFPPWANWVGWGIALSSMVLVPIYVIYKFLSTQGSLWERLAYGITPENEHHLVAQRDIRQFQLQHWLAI
Kind of assay: Competitive MS Binding Assay (MSBA), (1R,3S)-indatraline as marker, HEK293 membrane fractions. Particulars: read-out: Ki, NET. The method, then: (§1) Competitive MSBAs to characterize the affinity of test compounds employing (1R,3S)-indatraline as a marker for hDAT, hNET and hSERT, respectively, were performed exactly as described by Grimm et al.. For this purpose, membrane fractions obtained from HEK293 cell lines stably expressing the corresponding target protein were incubated in presence of a fixed concentration of (1R,3S)-indatraline together with varying concentrations of test compounds in 96 well plates. After separation of the non-bound marker by vacuum filtration from the binding samples, bound (1R,3S)-indatraline remaining on the filter was eluted with acetonitrile (containing internal standard) and quantified by LC-ESI-MS/MS. Subsequently, inhibition of (1R,3S)-indatraline binding caused by test compounds could be analyzed essentially in the same way as described for radioligand binding assays.

The target in another assay is T3, hDAT (Homo sapiens, UniProt Q01959).
T3 construct: expressed in transfected cells
T3 sequence (Q01959 whole entry): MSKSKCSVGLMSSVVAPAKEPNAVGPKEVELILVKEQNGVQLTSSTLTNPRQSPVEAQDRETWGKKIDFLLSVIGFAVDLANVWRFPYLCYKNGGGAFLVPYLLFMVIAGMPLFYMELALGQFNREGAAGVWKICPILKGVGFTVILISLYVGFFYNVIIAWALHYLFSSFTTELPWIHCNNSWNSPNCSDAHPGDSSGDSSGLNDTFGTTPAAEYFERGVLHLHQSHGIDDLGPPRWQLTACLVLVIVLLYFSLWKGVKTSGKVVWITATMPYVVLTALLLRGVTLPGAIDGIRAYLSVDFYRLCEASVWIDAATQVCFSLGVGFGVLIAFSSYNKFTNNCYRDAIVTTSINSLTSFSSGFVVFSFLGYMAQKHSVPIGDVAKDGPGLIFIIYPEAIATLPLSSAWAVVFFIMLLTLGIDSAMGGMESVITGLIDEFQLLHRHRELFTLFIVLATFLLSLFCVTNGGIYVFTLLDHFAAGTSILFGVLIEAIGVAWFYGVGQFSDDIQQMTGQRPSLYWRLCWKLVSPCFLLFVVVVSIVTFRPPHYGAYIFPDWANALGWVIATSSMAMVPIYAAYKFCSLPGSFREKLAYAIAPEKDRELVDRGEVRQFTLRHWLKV
Described as above. How it is done: as §1

For a further assay, the target named is T4, hSERT (Homo sapiens, UniProt P31645).
T4 construct: expressed in transfected cells
T4 sequence (P31645 whole entry): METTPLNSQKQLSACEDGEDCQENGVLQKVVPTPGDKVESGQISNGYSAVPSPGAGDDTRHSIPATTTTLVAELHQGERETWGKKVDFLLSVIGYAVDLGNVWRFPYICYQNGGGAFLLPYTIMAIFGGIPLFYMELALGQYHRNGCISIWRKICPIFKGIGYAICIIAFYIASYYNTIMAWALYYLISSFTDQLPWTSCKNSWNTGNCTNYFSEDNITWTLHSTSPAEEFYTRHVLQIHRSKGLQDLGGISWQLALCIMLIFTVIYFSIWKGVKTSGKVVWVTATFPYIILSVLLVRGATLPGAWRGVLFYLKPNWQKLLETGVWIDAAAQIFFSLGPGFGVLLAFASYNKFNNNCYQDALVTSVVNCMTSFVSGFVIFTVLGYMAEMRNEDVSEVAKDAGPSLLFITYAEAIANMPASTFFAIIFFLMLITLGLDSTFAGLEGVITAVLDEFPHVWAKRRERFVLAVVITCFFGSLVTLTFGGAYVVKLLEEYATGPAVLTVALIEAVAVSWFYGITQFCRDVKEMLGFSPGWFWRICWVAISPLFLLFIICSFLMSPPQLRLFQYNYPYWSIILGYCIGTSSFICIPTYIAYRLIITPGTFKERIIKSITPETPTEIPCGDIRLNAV
Described as above. How it is done: as §1

In assay [3] the target is T1, rSERT. The experiment in a line: PAL and CuAAC fluorescence assay of 17 on rSERT-enriched material immobilized on ANTI-FLAG M2 affinity gel, with competitors. It is filed as binding. To be noted: for decrease in binding signal of 17 at enriched rSERT by competitor: 17 1 μM, competitor 1 mM (1000 fold molar excess), PAL then CuAAC rhodamine fluorescence.
Procedure: as §2
For the interaction analysis of azidobupramine (17) with rSERT-enriched material, 1 mg of membrane preparation was solubilized in reaction-buffer RB3 (52.6 mM Tris/HCl, 126.4 mM NaCl, 5.26 mM KCl, 1% Triton X-100, proteinase inhibitor, pH 7.9). Then rSERT was immobilized on ANTI-FLAG® M2 Affinity-gel (over night, 4°C, constant agitation), and unbound protein was removed by three washing steps with reaction-buffer RB4 (25 mM HEPES/NaOH, 126.4 mM NaCl, 5.26 mM KCl, proteinase inhibitor, pH 7.9). […] This was followed by UV-light exposure (312 nm, 2x 45”, RT) using the Dual Transilluminator from Stratagene (5x8 Watt, La Jolla, CA, USA), and copper mediated click reaction (60 μM Rhodamine-azide, 2.5 mM ascorbic acid, 250 μM CuSO4, and 500 μM bis[(tertbutyltriazoyl)methyl]-[(2-carboxymethyltriazoyl)methyl]amine (BTTAA), 60’, RT, constant agitation) [31].
Within the fluorescence based interaction studies of 17 with rSERT, the fluorescence signal was recorded with the ChemiDoc MP detection-system and analyzed using ImageLab (BioRad, CA, USA); for quantification, only those fluorescent signals were taken that correspond to Western blot verified rSERT (between 70-100 kDa). Recorded fluorescent signals were normalized to the Western-blot signal of rSERT.

On rSERT [1], `CNCCCN1c2ccccc2CCc2ccc(N=[N+]=[N-])cc21` [compound 15, 3-(3-azido-10,11-dihydro-5H-dibenzo[b,f]azepin-5-yl)-N-methylpro-pan-1-amine] had an IC50 of 85.1 nM and a Ki of 62.4 nM.

On to `C#CCCN(C)CCCN1c2ccccc2CCc2ccc(N=[N+]=[N-])cc21` [compound 17, N-(3-(3-azido-10,11-dihydro-5H-dibenzo[b,f]azepin-5-yl)propyl)-N-methylbut-3-yn-1-amine], for which the “covalent labelling of rSERT in living cells” value on rSERT [2] is “forms covalent bonds with rSERT after UV-light exposure in living cells”. Besides, the IC50 on rSERT [1] was 30.2 nM. Moreover, the Ki was 22.2 nM on rSERT [1]; 115 nM at hNET; 1640 nM on hDAT (read-out: Ki, DAT); 1580 nM on hDAT (three independent experiments, each in triplicates, read-out: pKi ±SEM, DAT (converted)); 103 nM on hSERT (MSBA, read-out: Ki, SERT). Also, on hSERT (Ki 103 nM (MSBA, human) vs 22.2 nM (RBA, rat)), the “drop in affinity to SERT, MSBA versus RBA” value amounted to 4.6 fold. Moreover, the “covalent labelling of rSERT by PAL and visualization by CuAAC” value on rSERT [3] (rSERT-enriched material, UV-light 312 nm) is reported as “interacts predominantly with rSERT”.

At rSERT [1], `CN(C)CCCN1c2ccccc2CCc2ccc(N=[N+]=[N-])cc21` [compound 11, 3-(3-azido-10,11-dihydro-5H-dibenzo[b,f]azepin-5-yl)-N,N-dimethyl propan-1-amine] showed an IC50 of 12 nM and a Ki of 8.82 nM.

For `CN1CCN2c3ncccc3Cc3ccccc3C2C1` (centres unmarked) [mirtazapine], the “decrease in binding signal of 17 at enriched rSERT by competitor” value on rSERT [3] is recorded as “does not”; at rSERT [3] (listed as MRT), “no effect”.

As for `CN(CCCN1c2ccccc2CCc2ccccc21)CC(=O)c1ccc(Cl)cc1` [compound 5, lofepramine, reference compound], at rSERT [1], the IC50 was 1550 nM and the Ki was determined as 1120 nM.
